Laboratory results reported in patent US20250009743A1, “METHODS OF TREATING CANCERS USING STING AGONISTS” (Dana-Farber Cancer Institute, Inc., priority 2021, published 2025).

Tests used:
Type in all cases: in vivo, mouse
[1] = tested on: BP-sgControl tumors; assay: BP-sgControl tumor growth and survival in FVB mice; settings: DMXAA 10 mg/kg i.p. weekly; olaparib 50 mg/kg i.p. q.d.; FIG. 11G
Method: Primary mammary tumor cells for orthotopic injection were resuspended in serum-free DMEM containing 40% matrigel (Corning). 5×10^5 tumor cells in a total volume of 100 μL were injected orthotopically into the thoracic mammary fat pads of 8-week-old female FVB/NJ mice (The Jackson Laboratory). Tumor growth was examined by measuring the greatest longitudinal diameter (length) and the greatest transverse diameter (width) with digital calipers, and tumor volume was calculated by use of the modified ellipsoid formula (0.52×length×width2). Tumors were measured 2-3 times a week. All tumor measurements within single cohorts were performed by the same researcher. Tumor-bearing mice were randomized prior to start of treatment. Drug treatments were started when mean tumor volumes approximated 50-100 mm3. Mice were euthanized by CO2 inhalation when tumor volumes met humane endpoints described in the IACUC (20 mm diameter) protocols or upon severe health deterioration.
Olaparib (MedChem, #HY-10162) was prepared by diluting 100 mg/l mL stocks in DMSO with 10% (2-Hydroxypropyl)-β-cyclodextrin (HPCD, MedChem, #101103) in PBS and administered immediately after drug preparation by intraperitoneal (i.p.) injection at a dose of 50 mg/kg body weight daily. DMXAA (Sigma, #D5817) was reconstituted at 10 mg/mL in 7.5% NaHCO3(Gibco). […]

[2] = tested on: myeloid cells (CD45^+CD11b^+) in ascites of PBM-R tumor-bearing mice; assay: Myeloid cells in ascites of PBM-R tumor-bearing mice (transcriptome, flow cytometry); settings: 24 hours treatment
Method: Tumors were chopped and digested in collagenase buffer as described previously (Ding et al., 2018 Cell Rep 25, 2972-2980.e2975). Single cell suspensions of tumor and ascites were obtained by filtering through 70 um strainers and treated with 1× eBioscience RBC lysis buffer (Thermo Fisher) before staining. Single cells suspensions were incubated with LIVE/DEAD Fixable Aqua Dead Cell Stain (Life Technologies, Cat #L34965) for 30 min and then blocked with anti-CD16/32 (Biolegend, clone 93) for 20 min on ice. Samples were then incubated with appropriate antibodies for 30 min on ice. Foxp3 staining buffer set (eBioscience, Cat #00-5523-00) was applied for intracellular markers staining. For the intracellular cytokine analysis, cells were stimulated with Leukocyte Activation Cocktail (BD Biosciences, Cat #550583) at 37° C. for 4-6 hours prior to FACS staining. The following antibodies were used in this study: antibodies were purchased from BioLegend unless otherwise indicated: CD45 (clone 30-F11), CD3ε (clone 145-2C11), CD4 (clone RM4-5), CD8 (clone 53-6.7), CD44 (clone IM7), CD62L (MEL-14), CD25 (PC61), IFNγ (clone XMG1.2), TNFα (clone MP6-XT22), CD11b (clone M1/70), CD11c […], F4/80 (clone BM8), Ly-6C (clone HK1.4), Ly-6G (clone 1A8), MHC-II (clone M5/114.15.2), CD80 (clone 16-10A1), CD86 (clone GL-1), MHC-I (clone KH114), FoxP3 (clone FJK-16 s; eBioscience), Phospho-IRF-3 (Ser396) (clone D601M, Cell signaling technology) and Phospho-TBK1/NAK (Ser172) (clone D52C2, Cell signaling technology). The following human antibodies were used in this study: cell surface markers includes CD45 (clone H130), CD11b (clone M1/70), CD11c (clone Bu15), CD80 (clone 2D10), CD86 (clone IT2.2), CD14 (clone 63D3), CD15 […], HLA-DR (clone L243) and HLA-A,B,C (clone W6/32); intracellular markers include CD163 (clone GHI/61), CD68 (clone Y1/82A) and CD206 (clone 15-2). Flow cytometry was performed on an LSRII (BD Biosciences) or Fortessa HTS (BD Biosciences) at DFCI Flow Cytometry Core, and all the data were analyzed using FlowJo software.
Transcriptome analysis of myeloid cells: about 1 x10^6 PBM-R tumor cells were intraperitoneally injected to FVB/NJ mice. About 2-3 weeks after injection, mice were grouped and treated with control, olaparib, MSA-2 and […] for 24 hrs. After treatment, myeloid cells (CD45^+CD11b^+) were isolated from the ascites of each mouse (n=3 per group). Total RNAs was isolated and sequenced on the Ion Torrent platform (Thermo Fisher) that described above using the Ion AmpliSeq Transcriptome Mouse Gene Expression Panel. Gene ontology (GO) analysis of DEGs was performed using topGO package in R. GSEA analysis was performed as described above. Heat maps illustrating changes in gene expression were generated using the heatmap.3 package in R.

[3] = tested on: PE tumors; assay: Flow cytometry of immune cells in PE tumors and tumor-drainage lymph nodes; settings: single-agent treatment; FIG. 30B
Method: To obtain single-cell suspension from tumor mass, tumors were excised, minced and dissociated in collagenase buffer (DMEM supplemented with 5% FBS, 10 mM HEPES [Gibco), 100 μg/mL penicillin-streptomycin, 20 μg/mL DNase I [StemCell] and 1× collagenase/hyaluronidase [StemCell]) at 37° C. for 45 min. Tumor-draining lymph nodes were isolated from tumor-bearing mice and were mashed through 70 μm strainer using plunger of a syringe to obtain single-cell suspension.
For FACS staining, tissue cells were first stained with LIVE/DEAD Fixable Aqua Dead Cell Stain (Thermo Fisher) for 30 min on ice, followed by blocking with anti-CD16/32 (BioLegend) for 20 minutes on ice. Afterwards, cells were incubated with antibodies targeting surface biomarkers in FACS buffer for 30 minutes on ice.

Structure (SMILES)	BP-sgControl tumor growth [1]	cGAS-STING pathway gene signature in myeloid cells ([2]; vs control mice)	expression of M1-like/anti-tumorigenic genes ([2]; FIG. 21D)	expression of genes associated with antigen processing and presentation ([2]; FIG. 21D)	expression of genes associated with pro-tumorigenic M2 polarization ([2]; FIG. 21D)	population of TAMs in ascites ([2]; FIG. 21F)	population of CD11b^+CD11c^+ myeloid DCs in ascites ([2]; FIG. 21G)	tumor immune microenvironment of large PE tumors [3]
Cc1ccc2c(=O)c3cccc(CC(=O)O)c3oc2c1C [DMXAA, 5,6-dimethyl-xanthenone-4-acetic acid]	no significant impact	–	–	–	–	–	–	–
COc1cc2cc(C(=O)CCC(=O)O)sc2cc1OC [MSA-2]	–	significantly higher enrichment scores	strongly up-regulated	strongly stimulated	inhibited	decreased	increased	did not significantly affect
